Laboratory results taken from ChEMBL document CHEMBL2073813, “Regulation of renal oatp mRNA expression by testosterone” (Am J Physiol, 1996).

How the values were obtained:
[1] = target: T1, Solute carrier organic anion transporter family member 1A1 (Rattus norvegicus, UniProt P46720); experiment: TP_TRANSPORTER: Northern blot in vivo, kidney of SD rat; format: functional, organism-based, Sprague-Dawley
T1 sequence (P46720 whole entry): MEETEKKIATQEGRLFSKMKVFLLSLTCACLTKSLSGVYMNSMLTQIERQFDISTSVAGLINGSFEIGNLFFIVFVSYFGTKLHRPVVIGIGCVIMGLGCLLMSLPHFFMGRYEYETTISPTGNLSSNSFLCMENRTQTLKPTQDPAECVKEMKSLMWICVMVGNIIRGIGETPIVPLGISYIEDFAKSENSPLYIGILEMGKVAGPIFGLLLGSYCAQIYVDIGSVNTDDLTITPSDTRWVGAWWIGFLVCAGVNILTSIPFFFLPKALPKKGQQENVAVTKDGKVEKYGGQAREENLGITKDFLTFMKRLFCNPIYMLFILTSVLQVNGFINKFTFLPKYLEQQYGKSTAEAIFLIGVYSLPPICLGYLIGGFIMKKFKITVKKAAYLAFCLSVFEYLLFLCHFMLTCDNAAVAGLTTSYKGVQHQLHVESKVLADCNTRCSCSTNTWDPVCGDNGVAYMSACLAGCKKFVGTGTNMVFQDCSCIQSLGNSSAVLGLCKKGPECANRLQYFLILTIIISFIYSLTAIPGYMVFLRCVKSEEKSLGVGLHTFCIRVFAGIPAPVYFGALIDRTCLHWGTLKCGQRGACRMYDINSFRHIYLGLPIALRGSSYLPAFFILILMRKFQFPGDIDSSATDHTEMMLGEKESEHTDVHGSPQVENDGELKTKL

[2] = target: T1, Solute carrier organic anion transporter family member 1A1; experiment: TP_TRANSPORTER: Northern blot; format: functional

| SMILES | Activity [1] | Activity [2] |
| --- | --- | --- |
| C[C@]12CC[C@H]3[C@@H](CCC4=CC(=O)CC[C@@]43C)[C@@H]1CC[C@@H]2O [TESTOSTERONE] | inducer [+] | – |
| C[C@]12CC[C@@H]3c4ccc(O)cc4CC[C@H]3[C@@H]1CC[C@@H]2O [ESTRADIOL] | – | inducer [+] |
